# Experimental data as given in ChEMBL document CHEMBL1138246, “Ester prodrugs of cyclic 1-(S)-[3-hydroxy-2-(phosphonomethoxy)propyl]-5-azacytosine: synthesis and antiviral activity” (J Med Chem, 2007).
# Columns and labels:
# CCRF-CEM = assay: Cytotoxicity against CEM cells assessed as cell growth after 3 days; format: functional; details: Homo sapiens, 72 h
# Sindbis virus = assay: Antiviral activity against Sindbis virus in Vero cells reduction of virus-induced cytopathogenicity after 4 days; format: functional, organism-based; details: 96 h
# Human alphaherpesvirus 2 [1] = format: functional, organism-based; details: Human alphaherpesvirus 2, Lyons, HEL
# Human respirovirus 3 = assay: Antiviral activity against Parainfluenza 3 in Vero cells reduction of virus-induced cytopathogenicity after 4 days; format: functional, organism-based; details: Human respirovirus 3, Vero, 96 h
# MOLT-3 = assay: Cytotoxicity against MOLT3 cells assessed as alteration in morphology after 3 days; format: functional, Homo sapiens
# Vero = assay: (§1) Cytotoxicity against Vero cells assessed as alteration in morphology after 3 days; format: cell-based, Chlorocebus sabaeus; details: Chlorocebus sabaeus, Vero, 72 h
# [2] = test system: Mammalian orthoreovirus 1; assay: Antiviral activity against Reovirus 1 in Vero cells reduction of virus-induced cytopathogenicity after 4 days; format: functional, organism-based; details: Mammalian orthoreovirus 1, Vero, 96 h
# Human betaherpesvirus 5 [3] = format: functional, organism-based; details: Human betaherpesvirus 5, Davis, HEL
# Punta Toro virus = assay: Antiviral activity against Punta Toro virus in Vero cells reduction of virus-induced cytopathogenicity after 4 days; format: functional, organism-based; details: 96 h
# Human alphaherpesvirus 3 [4] = format: functional, organism-based; details: Human alphaherpesvirus 3, OKA, HEL
# [5] = Cytotoxicity against C3H cells assessed as alteration in morphology after 3 days; format: cell-based, Mus musculus; details: for EC50: Mus musculus, C3H, 72 h; for MCC at 72 h: mouse, C3H cells
# HeLa = assay: Cytotoxicity against HeLa cells assessed as alteration in morphology after 3 days; format: functional, cell-based; details: Homo sapiens, 72 h
# [6] = test system: Respiratory syncytial virus; format: functional, organism-based; details: human respiratory syncytial virus, HeLa
# [7] = test system: Human immunodeficiency virus 1; format: functional, organism-based; details: Human immunodeficiency virus 1, 3B, CCRF-CEM, 96 h
# HEL [8] = assay: Cytotoxicity against HEL cells assessed as alteration in morphology after 3 days; format: functional; details: Homo sapiens, 72 h
# [9] = test system: Vesicular stomatitis virus; assay: microbe, parasite or virus in culture; details: HeLa
# Coxsackievirus B4 [10] = format: functional, organism-based; details: Enterovirus B, HeLa
# Human alphaherpesvirus 3 [11] = format: functional, organism-based; details: Human alphaherpesvirus 3, 07-1, HEL
# [12] = test system: Vesicular stomatitis virus; assay: microbe, parasite or virus in culture; details: HEL
# [13] = Cytotoxicity against HSB2 cells assessed as alteration in morphology after 3 days; format: functional, Homo sapiens, CCRF-HSB-2
# Human alphaherpesvirus 2 [14] = format: functional, organism-based; details: Human alphaherpesvirus 2, G, HEL
# Coxsackievirus B4 [15] = format: functional, organism-based; details: Enterovirus B, Vero
# Human betaherpesvirus 5 [16] = format: functional, organism-based; details: Human betaherpesvirus 5, AD169, HEL
# Human adenovirus 2 = format: functional, organism-based; details: Human mastadenovirus C, HEL
# [17] = test system: Moloney murine sarcoma virus; details: C3H
# [18] = test system: Human immunodeficiency virus 2; format: functional, organism-based; details: Human immunodeficiency virus 2, ROD, CCRF-CEM, 96 h
# HEL [19] = assay: Cytotoxicity against HEL cells assessed as cell growth after 3 days; format: functional, Homo sapiens
# [20] = as §1; format: cell-based, Chlorocebus sabaeus; details: chlorocebus sabaeus, Vero cells
# [21] = Homo sapiens, MOLT-3, 72 h, read-out: MCC
# [22] = Homo sapiens, CCRF-HSB-2, 72 h, read-out: MCC
# [23] = Homo sapiens, HEL, 72 h, read-out: CC50
Compound,EC50 (Sindbis virus),EC50 (Human alphaherpesvirus 2 [1]),EC50 (Human respirovirus 3),EC50 [2],EC50 (Human betaherpesvirus 5 [3]),EC50 (Punta Toro virus),EC50 (Human alphaherpesvirus 3 [4]),EC50 [6],MCC (HEL [8]),EC50 [9],EC50 (Coxsackievirus B4 [10]),EC50 (Human alphaherpesvirus 3 [11]),EC50 [12],EC50 (Human alphaherpesvirus 2 [14]),EC50 (Coxsackievirus B4 [15]),EC50 (Human betaherpesvirus 5 [16]),EC50 [17],CC50 (HEL [19]; [23]),MCC at 72 h [20],MCC (HeLa),other results
Nc1ncn(C[C@@H](CO)OCP(=O)(O)O)c(=O)n1,> 100 µg/mL,0.24 µg/mL,> 100 µg/mL,> 100 µg/mL,0.082 µg/mL,> 100 µg/mL,0.06 µg/mL,> 100 µg/mL,> 100 µg/mL,> 100 µg/mL,> 100 µg/mL,0.039 µg/mL,> 100 µg/mL,0.45 µg/mL,> 100 µg/mL,0.23 µg/mL,≥ 4 µg/mL,225 µg/mL,–,–,"CC50 (CCRF-CEM): 30 µg/mL; MCC (MOLT-3; [21]): 16 µg/mL; EC50 (Vero): > 100 µg/mL; EC50 [5]: > 20 µg/mL; EC50 (HeLa): > 100 µg/mL; EC50 [7]: 20 µg/mL; MCC [13, 22]: 16 µg/mL; EC50 (Human adenovirus 2): 0.71 µg/mL; EC50 [18]: 20 µg/mL"
Nc1ncn(C[C@H]2COP(=O)(O)CO2)c(=O)n1,> 200 µg/mL,0.48 µg/mL,> 200 µg/mL,> 200 µg/mL,0.06 µg/mL,> 200 µg/mL,0.12 µg/mL,> 200 µg/mL,> 100 µg/mL,> 200 µg/mL,> 200 µg/mL,0.04 µg/mL,> 200 µg/mL,0.61 µg/mL,> 200 µg/mL,0.07 µg/mL,> 20 µg/mL,> 100 µg/mL,> 200 µg/mL,> 200 µg/mL,"MCC (MOLT-3; [21]): 33 µg/mL; MCC at 72 h [5]: 100 µg/mL; MCC [13, 22]: 200 µg/mL"
CCCCCCCCCCCCCCCCOCCOP1(=O)CO[C@@H](Cn2cnc(N)nc2=O)CO1 (some centres not stated),16 µg/mL,0.004 µg/mL,16 µg/mL,16 µg/mL,0.00014 µg/mL,16 µg/mL,0.0014 µg/mL,> 3.2 µg/mL,16 µg/mL,> 3.2 µg/mL,> 3.2 µg/mL,0.0008 µg/mL,> 3.2 µg/mL,0.082 µg/mL,16 µg/mL,0.00038 µg/mL,> 4 µg/mL,–,80 µg/mL,16 µg/mL,CC50 (CCRF-CEM): 2 µg/mL; MCC (MOLT-3): 0.56 µg/mL; MCC at 72 h [5]: 20 µg/mL; EC50 [7]: > 0.8 µg/mL; MCC [13]: 1.6 µg/mL; EC50 (Human adenovirus 2): < 0.512 µg/mL; EC50 [18]: > 0.8 µg/mL; CC50 (HEL [19]): 6.4 µg/mL
CCCCCCCCCCCCCCCCCCOP1(=O)CO[C@@H](Cn2cnc(N)nc2=O)CO1 (some centres not stated),> 8 µg/mL,1.31 µg/mL,> 8 µg/mL,> 8 µg/mL,0.0014 µg/mL,> 8 µg/mL,0.04 µg/mL,> 40 µg/mL,8 µg/mL,> 40 µg/mL,> 40 µg/mL,0.009 µg/mL,> 1.6 µg/mL,1.66 µg/mL,> 8 µg/mL,0.0037 µg/mL,> 4 µg/mL,> 100 µg/mL,–,–,"CC50 (CCRF-CEM): 12 µg/mL; MCC (MOLT-3; [21]): 0.8 µg/mL; EC50 (Vero): 40 µg/mL; EC50 [5]: 20 µg/mL; EC50 (HeLa): 200 µg/mL; EC50 [7]: > 20 µg/mL; MCC [13, 22]: ≥ 5 µg/mL; EC50 (Human adenovirus 2): 0.051 µg/mL; EC50 [18]: > 20 µg/mL"
CC(C)(C)C(=O)OCOP1(=O)CO[C@@H](Cn2cnc(N)nc2=O)CO1 (some centres not stated),> 100 µg/mL,0.24 µg/mL,> 100 µg/mL,> 100 µg/mL,0.067 µg/mL,> 100 µg/mL,0.11 µg/mL,> 20 µg/mL,> 40 µg/mL,> 20 µg/mL,> 20 µg/mL,0.02 µg/mL,> 20 µg/mL,0.32 µg/mL,> 100 µg/mL,0.061 µg/mL,> 20 µg/mL,14 µg/mL,> 100 µg/mL,100 µg/mL,"CC50 (CCRF-CEM): 18 µg/mL; MCC (MOLT-3; [21]): ≥ 4 µg/mL; MCC at 72 h [5]: 100 µg/mL; EC50 [7]: > 20 µg/mL; MCC [13, 22]: 4 µg/mL; EC50 (Human adenovirus 2): 0.069 µg/mL; EC50 [18]: > 20 µg/mL"
Nc1ncnc2c1ncn2C[C@H](O)CO [(S)-DHPA],> 200 µg/mL,–,> 200 µg/mL,200 µg/mL,–,> 200 µg/mL,–,> 200 µg/mL,–,120 µg/mL,> 200 µg/mL,–,–,–,> 200 µg/mL,–,–,–,> 200 µg/mL,> 200 µg/mL,–
Nc1nc2c(ncn2COCCO)c(=O)[nH]1 [ACYCLOVIR],–,–,–,–,–,–,–,–,> 100 µg/mL,–,–,–,–,0.05 µg/mL,–,–,–,212 µg/mL,–,–,–
O=c1[nH]c(=O)n([C@H]2C[C@H](O)[C@@H](CO)O2)cc1/C=C/Br [BRIVUDINE],> 200 µg/mL,8.8 µg/mL,> 200 µg/mL,> 200 µg/mL,–,> 200 µg/mL,0.0022 µg/mL,> 200 µg/mL,> 100 µg/mL,200 µg/mL,> 200 µg/mL,≥ 44.4 µg/mL,200 µg/mL,9 µg/mL,> 200 µg/mL,–,–,212 µg/mL,> 200 µg/mL,> 200 µg/mL,–
Nc1ccn(C[C@@H](CO)OCP(=O)(O)O)c(=O)n1.O.O [CIDOFOVIR],> 31.5 µg/mL,0.42 µg/mL,> 31.5 µg/mL,> 31.5 µg/mL,0.18 µg/mL,> 31.5 µg/mL,0.09 µg/mL,> 31.5 µg/mL,> 31.5 µg/mL,> 31.5 µg/mL,> 31.5 µg/mL,0.03 µg/mL,> 31.5 µg/mL,0.65 µg/mL,> 31.5 µg/mL,0.15 µg/mL,> 4 µg/mL,76 µg/mL,> 31.5 µg/mL,> 31.5 µg/mL,"MCC at 72 h [5]: 20 µg/mL; EC50 [7]: > 20 µg/mL; MCC [13, 22]: 60 µg/mL; EC50 (Human adenovirus 2): 2 µg/mL; EC50 [18]: > 20 µg/mL"
Nc1ccn(C[C@H]2COP(=O)(O)CO2)c(=O)n1 [CYCLIC CIDOFOVIR],> 200 µg/mL,0.45 µg/mL,> 200 µg/mL,> 200 µg/mL,0.22 µg/mL,> 200 µg/mL,0.12 µg/mL,> 200 µg/mL,> 100 µg/mL,> 200 µg/mL,> 200 µg/mL,0.04 µg/mL,> 200 µg/mL,0.76 µg/mL,> 200 µg/mL,0.21 µg/mL,> 20 µg/mL,≥ 76 µg/mL,> 200 µg/mL,> 200 µg/mL,MCC at 72 h [5]: 100 µg/mL; EC50 [7]: > 20 µg/mL; EC50 [18]: > 20 µg/mL
Nc1nc2c(ncn2COC(CO)CO)c(=O)[nH]1 [GANCICLOVIR],–,0.0014 µg/mL,–,–,1.29 µg/mL,–,–,–,> 100 µg/mL,–,–,–,–,0.0036 µg/mL,–,1.68 µg/mL,–,122 µg/mL,–,–,–
NC(=O)c1ncn([C@@H]2O[C@H](CO)[C@@H](O)[C@H]2O)n1 [RIBAVIRIN],120 µg/mL,–,120 µg/mL,200 µg/mL,–,40 µg/mL,–,24 µg/mL,> 200 µg/mL,24 µg/mL,90 µg/mL,–,120 µg/mL,–,> 200 µg/mL,–,–,–,> 200 µg/mL,> 200 µg/mL,–
